# Experimental data from patent US10350315B2, “Quinoline-3-carboxamide compounds and their use in diagnosis” (Westfaelische Wihelms-Universitaet Muenster, priority 2014, dated 2019).
# Columns and labels:
# [1] = biological target: T1, S100A9 (Mus musculus, UniProt P31725); assay: LPS-induced acute lung injury (ALI) mouse model, FRI of explanted lungs; format: in vivo, mice
# T1 construct: from tissue; host or cells: living mice (inflamed ear, joints) and explanted mouse heart, aorta and lungs
# T1 sequence (P31725 2-113 limits assumed): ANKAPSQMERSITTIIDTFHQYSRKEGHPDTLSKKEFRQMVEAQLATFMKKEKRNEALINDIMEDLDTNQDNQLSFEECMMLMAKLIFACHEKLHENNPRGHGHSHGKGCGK
# Experimental: FIG. 22: Accumulation of Cy5.5-CES271 in a mouse model of acute lung inflammation (ALI). (A) At different time points after the intranasal application of either 10 pg or 50 pg LPS the local and systemic levels of S100A8/S100A9 are compared to control animals. Exemplary paraffin sections of inflamed and healthy lung tissue, taken at 8 h after LPS (10 pg) application were stained for S100A9-expression. Histological data of control (upper image) and lung inflammation (lower image) confirmed local expression of these proteins. […] 50 pg LPS treated mice injected with glycine saturated Cy5.5 served as perfusion controls. (C) S100A8/S100A9 serum levels of LPS treated and control animals are correlated with the measured Mean Fluorescence Intensity over the lungs (R^2=0.69; n=19; p<0.001).
# LPS-induced lung inflammation was elicited via intranasal application of 50 pg or 10 pg of LPS. LPS from Escherichia coli 055:B5 was obtained from Sigma-Aldrich. Directly after the administration of LPS 2 nmol of tracer were injected intravenously. Glycine saturated Cy5.5 served as a perfusion control for CES271-Cy5.5, while Cy5.5-labelled rabbit IgG without relevant specificity served as a control for aS100A9-Cy5.5. Mice were either assigned to fluorescence mediated tomography (FMT) to fluorescence reflectance imaging (FRI). For FRI imaging, the mice were sacrificed at the indicated time points. Afterwards, BALF was obtained and the lungs were fixed with 1% low melt aggarose.
# 2D FRI lung imaging was performed using the Bruker FX Pro Imaging Station (Bruker Corporation). Excitation light was set to 630 nm using an appropriate bandpass filter. Emission at 700 nm was recorded using a filtre-equipped high-sensitivity (4-million-pixel) cooled charge-coupled device camera. Acquisition time was 5 s for each image.
# Mice were intravenously injected with Cy5.5-labelled CES271 (CES271-Cy5.5). The animals underwent optical imaging at various time points after injection. In our blocking experiments each mouse received 2 pmol CES271 1 h before 2 nmol of CES271-Cy5.5 were injected. […]
# [2] = biological target: T1, S100A9; assay: Irritant contact dermatitis (ICD) mouse model, fluorescence reflectance imaging (FRI); format: in vivo, mice; settings: FRI 3 h after tracer application
# Source text: FIG. 6: Accumulation of Cy5.5-CES271 in a mouse model of contact dermatitis (ICD). (A) FRI images showing accumulation of a quinoline-3-carboxamide compound covalently linked to a label (Cy5.5-CES271) in a mouse model of contact dermatitis of the left ear in WT (left) and S100A9 deficient (right) mice. (B) FRI images and S100A9 staining showing accumulation of a quinoline-3-carboxamide compound covalently linked to a label (Cy5.5-CES271) in a mouse model of contact dermatitis.
# FIG. 21: FRI images of Cy5.5-CES271 and Cy7-CES271 in a mouse model of contact dermatitis (ICD). (A) Representative Fluorescence Reflectance images of a Cy7-CES271 and Cy5.5-aS100A9 coinjected animal.
# In vivo fluorescence reflectance imaging was performed with an IVIS Spectrum small-animal imaging system (Xenogen). Images were acquired and analyzed using Living Image 4.X software (Xenogen). […] Fluorescence emission was measured by Fluorescence emission radiance per incident excitation irradiance (p/sec/cm2/sr/μW/cm2).
# ICD was induced by the application of 20 μl 1% croton oil in olive oil-acetone (1:4) to the ventral surface of the left ear of mice for 24 h (n=5 per group), whereas the right ear served as a control. […] In the Cy7 channel the quantum yield is much lower compared to the Cy5.5 channel, which means that the recorded signal with Cy5.5-CES271 is higher than compared to […] (right image; FIG. 21). […]
substance,measurement,setting,value
"3-ethyl-2((1E,3E,5E)-5-(3-(1-(5-ethyl-4-hydroxy-1-methyl-2-oxo-1,2-dihydroquinolin-3-yl)-1,15-dioxo-2-phenyl-5,8,11-trioxa-2,14-diazanonadecan-19-yl)-1,1-dimethyl-6,8-disulfonato-1H-benzo[e]indol-2(3H)-ylidene)penta-1,3-dien-1-yl)-1,1-dimethyl-1H-benzo[e]indol-3-ium-6,8-disulfonate [Cy5.5-CES271]",Tracer accumulation in explanted lungs of LPS treated mice,"[1]; 3 and 6 hours after parallel LPS/tracer application, 50 pg LPS intranasal, 2 nmol i.v., n=3, p<0.01",specific tracer accumulation could clearly be delineated
same,"Ratio of tracer accumulation in the lung parenchyma, LPS treated mice",[1]; 6 h post induction,up to 2.5
same,Correlation (R^2) of S100A8/S100A9 serum levels with Mean Fluorescence Intensity over the lungs,"[1]; n=19, p<0.001",0.69
same,Accumulation in the inflamed ear,[2]; S100A9−/− deficient mice,not observed
same,Accumulation in the inflamed ear,"[2]; WT mice, croton oil on left ear",significant accumulation
